Test results taken from patent publication US20080015166A1, “Barrier Integrity in Hiv Patients” (N.V. Nutricia, priority 2004, published 2008).

Tests used:
[1] = test system: intestinal epithelial cell lines T84 monolayers; test: Effect of LC-PUFA on basal (spontaneous) barrier integrity: TER and 4 kD FITC dextran flux in T84 monolayers; format: cell-based, human; conditions: for effect on epithelial resistance (in words) / effect on molecular flux (in words): 100 μM, 72 hr, Table 1; for basal barrier integrity (TER), FIG. 1 (in words): time and dose (10 μM and 100 μM) dependent
Method: (§1) Monolayers (MC) of intestinal epithelial cell lines T84 (American Type Culture Collection (ATTC), Manassas, USA) were cultured on transwell filters (Corning, Costar B V, The Netherlands) allowing both mucosal and serosal sampling and stimulation of human intestinal epithelial cells. Two weeks post confluency the monolayers were incubated in the luminal compartment with polyunsaturated fatty acids ARA (arachidonic acid; 5,8,11,14-eicosatetraenoic acid), DHA (cis-4,7,10,13,16,19 docosahexaenoic acid), EPA (eicosapentaenoic acid) or control palmitic (C 16:0) acid (Palm) (Sigma, St. Louis, USA). The latter procedure was chosen to mimic the in vivo administration route of the dietary compounds. Cells were incubated with ARA, DHA, EPA, GLA or palmitic acid for 0, 24, 48 and 72 hr at different concentrations (10 μM and 100 μM). Experiments were performed to evaluate basal barrier integrity. The epithelial barrier function was determined by measuring the transepithelial resistance (TER, Ω.cm^2) was measured by epithelial volt-ohm meter (EVOM; World Precision Instruments, Germany) and permeability for 4 kD FITC dextran (paracellular permeability marker, Sigma, USA). Resistance (. Epithelial permeability for 4 kDa FITC-dextran was determined as follows. Prior to dextran fluxes the medium was refreshed with culture medium without phenol red for one hour followed by addition of 5 μl (stock 100 mg/ml) 4 kDa FITC-dextran to the lumenal compartment. After 30 min incubation 100 μl sample was collected from the serosal compartment and the fluorescent signal measured at excitation wavelength 485 nm and emission 520 nm (FLUOstar Galaxy®, BMG Labtechnologies, USA). FITC-dextran fluxes were calculated as pmol FITC-dextran/cm^2/h. Statistical analyses were performed using the ANOVA (SPSS version 10).

[2] = test system: intestinal epithelial cell lines T84 monolayers incubated with IL-4; test: Effect of LC-PUFA on IL-4 mediated barrier disruption: TER and flux in T84 monolayers; format: cell-based, human; conditions: for Permeability (IL-4 Flux) / Resistance (IL-4 TER) / effect on IL-4 mediated barrier disruption (flux), in words: 100 μM; for Permeability (IL-4 Flux) / Resistance (IL-4 TER): 48 hr pre-incubation then 48 hr co-incubation with IL-4 2 ng/ml; for effect on IL-4 mediated barrier disruption (flux), in words: Table 2; for IL-4 mediated barrier destruction (Flux), FIG. 2 (in words): time and dose (10 μM and 100 μM) dependent, 4 kD dextran flux
Method: as §1
Monolayers (MC) of intestinal epithelial cell lines T84 (ATCC, USA) were cultured on transwell filters (Corning, Costar B V, The Netherlands) allowing both mucosal and serosal sampling and stimulation of human intestinal epithelial cells. Two weeks post confluency the monolayers were incubated in the presence of IL-4 (2 ng/ml, serosal compartment, Sigma, USA ) with or without polyunsaturated fatty acids ARA, DHA, GLA, EPA, or control palmitic acid (10 μM or 100 μM, mucosal compartment, Sigma, St. Louis, USA). Cells were pre-incubated with GLA, ARA, DHA, EPA, or palmitic acid for 48 hr prior to the IL-4 incubation. The co-incubation of PUFA's and palmetic acid with IL-4 was continued for another 48 hr; while culture medium and additives were changed every 24 hr. The epithelial barrier function was determined by measuring the transepithelial resistance (TER) and permeability as described in example 1. Statistical evaluation was performed as described in example 1.

[3] = test system: MUC-2 expression in intestinal epithelial T84 cells; conditions: 24 h, 0.025-4.0 mM, MC T84 and CC T84, compared to propionate and butyrate

| SMILES | effect on epithelial resistance (in words) [1] | effect on molecular flux (in words) [1] | basal barrier integrity (TER), FIG. 1 (in words) [1] | Permeability (IL-4 Flux) [2] | Resistance (IL-4 TER) [2] | effect on IL-4 mediated barrier disruption (flux), in words [2] | IL-4 mediated barrier destruction (Flux), FIG. 2 (in words) [2] | stimulating MUC-2 expression (mucus production), FIG. 4 (in words) [3] |
| --- | --- | --- | --- | --- | --- | --- | --- | --- |
| CCCCCC=CCC=CCC=CCC=CCCCC(=O)O [ARA, 5,8,11,14-eicosatetraenoic acid] | improve epithelial resistance | reduce the molecular flux | increased resistance | 273 ↓ pmol FITC-dextran/cm^2/h | 337 ↑ Ω.cm^2 | inhibit the increased flux caused by IL-4 | decreased 4 kD dextran flux | – |
| CCC=CCC=CCC=CCC=CCC=CC/C=C\CCC(=O)O [DHA, cis-4,7,10,13,16,19 docosahexaenoic acid] | improve epithelial resistance | reduce the molecular flux | increased resistance | 304 ↓ pmol FITC-dextran/cm^2/h | 328 ↑ Ω.cm^2 | inhibit the increased flux caused by IL-4 | decreased 4 kD dextran flux | – |
| CCCCCCCCCCCCCCCC(=O)O [Palmitic acid, palmitic acid, reference compound] | opposite effects | opposite effects | – | – | – | detrimental effect | – | – |
| CC/C=C\C/C=C\C/C=C\C/C=C\C/C=C\CCCC(=O)O [EPA, eicosapentaenoic acid] | – | – | – | 236 ↓ pmol FITC-dextran/cm^2/h | 375 ↑ Ω.cm^2 | – | – | – |
| CCCCC/C=C\C/C=C\C/C=C\CCCCC(=O)O [GLA, gamma linolenic acid] | improve epithelial resistance | reduce the molecular flux | increased resistance | 360 ↓ pmol FITC-dextran/cm^2/h | 331 ↑ Ω.cm^2 | inhibit the increased flux caused by IL-4 | decreased 4 kD dextran flux | – |
| CC(=O)O [acetate] | – | – | – | – | – | – | – | more potent |
